1 substance from patent publication US20230190887A1, “TARGETING G3BP AGGREGATION TO PREVENT NEURODEGENERATION” (priority 2019, published 2023) can be followed below.

Assay [1] deals with motor neurons generated from human induced pluripotent stem cells. Put plainly: Neurite growth of hiPSC-derived motor neurons. The class given is cell-based. The note with it: 20 μM peptide, assessed 24 h later. As for the experimental part:
Human induced pluripotent stem cells (hiPSCs) were maintained in dishes coated with Matrigel (Corning) in Flex8 media (ThermoFisher). hiPSCs were differentiated into human motor neurons using a directed differentiation protocol optimized by Kevin Eggan. 7000 neurons/well were plated on laminin—or CSPG coated 96 well plates. 100 μl at 10 μg/ml Laminin (ThermoFisher) and 25 ng CSPGs (Millipore) were used per well.
For peptide treatments, 10 μM Tat-fused peptides were added to dissociated DRG cultures at 2 or 12 h after plating. Neurite outgrowth was assessed 24 h after addition of peptides. For the cortical cultures, 10 μM peptide was applied to the axonal compartment at 3 d in vitro (DIV) and axonal growth was assessed at 6 DIV. For iMotor neurons, 20 μM peptides were immediately added and neurite growth was assessed 24 h later.
For neurite outgrowth, images from 60 h DRG cultures were analyzed for neurite outgrowth using WIS-Neuromath. Axon morphology was visualized using GFP and/or NF immunofluorescence as described. Differentiated hiPSC neuron image acquisition and neurite length quantification was performed using Arrayscan XTI (Thermo Fisher).

The subject of assay [2] is G3BP1 and pTDP-43 particles in C9ORF72 iPS-MN axons. Put plainly: G3BP1/pTDP-43 RNP condensates in iPS-MN axons. The class given is cell-based, human. The note with it: peptide exclusively in the axonal compartment of the MFC. An excerpt: Formation of G3BP1-positive RNP condensates is strongly associated with repressed RNA translation, see Sahoo, P. K. et al. A Ca^2+ dependent switch activates axonal casein kinase 2α translation and drives G3BP1 granule disassembly for axon regeneration. Curr. Biol. 30, 4882-4895.e6 (2020), and altered mRNA transport, see Liao, Y. C. et al. RNA granules hitchhike on lysosomes for long-distance transport, using Annexin All as a molecular tether. Cell 179, 147-164.e20 (2019), leading to reduced protein synthesis, see Sahoo, P. K. et al. Axonal G3BP1 stress granule protein limits axonal mRNA translation and nerve regeneration. Nat. Commun. 9, 1-14 (2018). […] By quantifying OPP puncta density within in vitro NMJs, we identified robust protein synthesis within control co-cultures, while protein synthesis in TDPΔNLS NMJs was severely impaired (FIG. 19 3k-l). […] Unpaired-t-test, two-sided ****p<0.0001. c Images and d-f quantification of NFH, pTDP-43 and G3BP1 and their colocalization in C9ORF72 iPS-MN axons either treated or not with G3BP1 peptide. Quantifications of G3BP1 particle density (d), G3BP1-pTDP-43 coloc-particle density (e) and G3BP1-pTDP-43 coloc-particle size (f) from C9ORF72 and control iPS-MN axons, either treated or not with G3BP1 peptide. […] One-way-ANOVA with Holm-Sidak correction. […], ****p<0.0001. i Images and j quantification of OPP puncta density in control or ΔNLS MN axons. […]

On to “YGNKKNNNQNNN-VVEPEPEPEPEPEPEPVSE [G3BP1 190-208 peptide]”, for which, in assay [1], the neurite length result is “significantly increased neurite length”. Besides, in assay [2], the G3BP1/pTDP43 particle size result is “Reduce G3BP1/pTDP43 particle size” and the “pTDP43 RNP-condensate density” value is “Reduce”.
